Data on one compound can be found in patent publication US20020198215A1 (priority 2000, published 2002).

Bounds are passed on as bounds.

The nature of data set [1]: Calculation of the release rate for a terazosin transdermal delivery system from literature pharmacokinetic data. To be noted: product of steady state concentration and clearance rate. The text has this:
Therefore, an equal dose is required to be delivered transdermally. […] The largest desirable surface area for a transdermal patch is about 40 cm^2. […] To account for drug elimination, further pharmacokinetic data and physiological data was required. […] The largest desirable surface area for a transdermal patch is about 40 cm^2. […] One of skill would expect a different input rate or flux to maintain a steady state concentration in consideration of the rate of loss of drug in the plasma due to elimination. A confirmatory calculation for flux requires further pharmacokinetic parameters. […] The largest desirable surface area for a transdermal patch is about 40 cm^2. […], yields a release rate of […] of transdermal patch surface area.

The conditions of data set [2]: terazosin therapy; cited from earlier work.
The next data set deals with plasma proteins. To be noted: cited from earlier work.
The conditions of data set [3]: cited from earlier work.
The conditions of data set [4]: after oral administration; cited from earlier work.

As a reminder, the bioavailability is dose-corrected exposure relative to a reference, in per cent.

As for `COc1cc2nc(N3CCN(C(=O)C4CCCO4)CC3)nc(N)c2cc1OC` (stereo not drawn) [terazosin, Terazosin], in data set [1], the dosing rate is 216 µg/h. For the same compound, in data set [2], the “adverse effect: asthenia (weakness, tiredness, and fatigue)” value is 11%; the “adverse effect: dizziness” value is on record as 19%; the “adverse effect: drowsiness” value is 5%; the “adverse effect: headache” value was 16%. In addition, in data set [2], the “adverse effect: nasal congestion” value is recorded as 6%, the “adverse effect: nausea/vomiting” value is reported as 4.4% and the “adverse effect: peripheral edema” value was 6%. Besides, the “bound to plasma proteins” value in the data set with plasma proteins is given as 90-94%. In addition, the removed during hemodialysis in data set [3] (hemodialysis) was 10%. Also, the “effect of impaired renal function on elimination” value in data set [3] (impaired renal function) is on record as “no significant effect”. Besides, in data set [3] (in vivo), the “dose excreted renally as unchanged drug” value was 10%, the physiological clearance rate is reported as 4,800 ml/hour and the “plasma concentration at steady state” value is 45 ng/mL. Also, in data set [3] (oral administration), the first-pass effect result is listed as “minimal first-pass effect” and the “time of peak plasma levels after administration” value is given as “about 1 hour”. The bioavailability in data set [3] (oral dose, gastrointestinal absorption) is listed as 90%. Also, in data set [3] (oral, presence of food), the “effect of food on terazosin bioavailability” value was “no significant effect”. Moreover, in data set [3] (oral, with food), the “delay of time to peak concentrations by food” value was “about 1 hour”. Moreover, the “plasma drug concentrations versus dosage” value in data set [3] (treatments from 1 to 5 days, dosages up to 40 mg) was “increased proportionately”. The “time until antihypertensive effects are seen” value in data set [4] is at most 15 min.
